Experimental data published in patent US5626864A, “Preparation of colloidal aqueous solutions of active substances of low solubility” (priority 1993, dated 1997).
Converted amounts (≈) assume the structure as drawn. Counter-ions that a name gives are not always drawn. Like-named read-outs stand apart in the source and are kept apart here.

Key:
[1] = Sterile filtration through a 0.2 μm filter (criterion for successful solubilization); type: physicochemical
Description: The following examples illustrate the invention. The criterion for successful solubilization is the possibility of sterile filtration through a 0.2 μm filter.
(§1) 40 mg of Z were dissolved in 10 ml of dichloromethane/methanol (9+1). All the solvent was removed again from the solution in a rotary evaporator under reduced pressure. 8 ml of a buffer solution (consisting of o-phsophoric acid [0.01 M] and sucrose [0.265 M] and EDTA disodium salt [0.1 mg/ml], pH about 1.9) were added to the residue, and the flask was rotated on the rotary evaporator (without reducing the pressure) with the water at 50° C for 1 h. […] Cooling to room temperature was followed by titration with 2 molar sodium hydroxide solution to pH 6.8, and the total volume was then made up to 10 ml with the abovementioned buffer solution (pH 6.8; titrated with NaOH). […] The clear supernatant was filtered through a 0.2 micrometer syringe filter, and the active substance concentration in this solution was determined by spectrophotometry.
(§2) The experiment was carried out like experiment A but 1.0 g of phospholipid (egg lecithin E 100, from Lipoid KG, Ludwigshafen) was weighed in addition to the active substance.
(§3) The experiment was carried out like experiment B, but after addition of the buffer solution (pH 1.9) and stirring at 50° C. (1 h), 100 microliters of a dilute aqueous solution of glacial acetic acid (120.1 g/l) were added, and this solution was then titrated to pH 4.6 with sodium hydroxide solution (2 molar).
The pH was adjusted to 4.8.

[2] = Active substance content of solution after 0.2 μm filtration (spectrophotometry); type: physicochemical
Description: A derivative of these bisnaphthalimides [drawing 1] was used to investigate the solubility in aqueous formulations as follows: […]
as §1, with “spectrophotometry. The active substance content in this solution was below 0.1 mg/ml.” for “spectrophotometry.”
as §2, §3

[3] = Physical stability of the solutions (precipitation / flocculation); type: physicochemical
Description: as §1, with “spectrophotometry. The active substance content in this solution was below 0.1 mg/ml.” for “spectrophotometry.”
as §2
The active substance content of the solution which had been titrated to pH 6.8 and sterilized by filtration was 4.0 mg/ml. The solution slowly flocculated out after about 12-24 h, both at room temperature and in a refrigerator.
as §3

[4] = cited from earlier work
[5] = eg. intravenous administration; cited from earlier work
[6] = Comparative Example: like Example 1, experiment C

With `O=C(C(c1ccccc1)c1ccccc1)N1CCN(CC(O)COc2cccc3ncccc23)CC1` (stereo not drawn) the sterile filtration [1] was “It was possible to sterilize the resulting solution by filtration”.
`O=C1c2cccc3cc([N+](=O)[O-])cc(c23)C(=O)N1CCCCNCCCN1C(=O)c2cccc3cc([N+](=O)[O-])cc(c23)C1=O` [Z] showed a solubility ([2]; Experiment C: egg lecithin E 100, acetic acid, titrated to pH 4.6, sterile filtration) of 4 mg/mL (≈ 6.72 mM), a solubility ([2]; egg lecithin e 100 solution, Experiment B (comparative): 1.0 g egg lecithin E 100, titrated to pH 6.8, sterilized by filtration) of 4 mg/mL (≈ 6.72 mM) and a solubility ([2]; sucrose/phosphoric acid buffer, Experiment A (comparative): no phospholipid, sucrose/phosphoric acid, titrated to pH 6.8, 0.2 μm filtered) of under 0.1 mg/mL. For the same compound, the “dissolution in acidic buffer” value ([3]; Experiment A: buffer pH about 1.9, 50° C, 1 h, no phospholipid) was “It was possible in this way to dissolve a considerable portion of the active substance”, the precipitation on titration ([3]; Experiment A: no phospholipid, cooled, titrated to pH 6.8) was “Most of the active substance precipitated again” and the “time to flocculation of solution” value ([3]; Experiment B: egg lecithin, pH 6.8, room temperature and refrigerator) was 12 to 24 h. For the same compound, the stability of solution ([3]; Experiment C: egg lecithin, pH 4.6, room temperature and refrigerator) was “stable for weeks without flocculating out”.
For `CCS(=O)(=O)Oc1ccc2c(C)c(C)c(=O)oc2c1` [esuprone], the “filtration through 0.2 μm or 0.45 μm filter” value [1, 6] is listed as “could not be filtered either through a 0.2 μm filter or through a 0.45 μm filter”, the “particle size of resulting solution” value [1, 6] is listed as “contained large colloidal particles” and the solubility in water ([4]; water) is listed as 0.015 mg/mL (≈ 0.0531 mM).
In the case of `CC(C)[C@@](C#N)(CCCN(C)CCc1ccccc1)c1ccccc1` [levemopamil hydrochloride], the “local intolerance on administration” value [5] is given as “show problems due to local intolerance on administration (eg. vein irritation on intravenous administration)” and the solubility in water ([4]; in words) is given as “adequately soluble in water”.
For dolastatin 15, the sterile filtration ([1]; Example 3: active substance 10 mg/ml, phospholipid 100 mg/ml) is given as “It was possible to sterilize the solution by filtration” and the solubility in water ([4]; in words) is given as “low solubility in water”.
